We go through 12 compounds from ChEMBL document CHEMBL4368865, “Synthesis, characterization and cytotoxic activity evaluation of ginsengdiol oxidation and nitrogen hybrid derivatives” (Medchemcomm, 2018).

The nature of assay [1]: Cytotoxicity against human 8901 cells assessed as inhibition of cell proliferation after 48 hrs by MTT assay. In kind it is functional, cell-based.
For assay [2], the system named is HeLa. Kind of assay: Cytotoxicity against human HeLa cells assessed as inhibition of cell proliferation after 48 hrs by MTT assay. The format is functional, cell-based.
Assay [3] is described as follows: Cytotoxicity against human IOSE-144 cells assessed as inhibition of cell proliferation after 48 hrs by MTT assay. The format is cell-based. The following applies: IOSE-144, 48 h.
The next assay concerns U-87 MG. Kind of assay: Cytotoxicity against human U87 cells assessed as inhibition of cell proliferation after 48 hrs by MTT assay. The format is functional, cell-based, U-87MG ATCC.
Assay [4] has as its system A549. Kind of assay: Cytotoxicity against human A549 cells assessed as inhibition of cell proliferation after 48 hrs by MTT assay. The format is functional, cell-based. The note with it: A549, 48 h.
Assay [5] relates to A549. The assay is described as follows: Potency index, ratio of 5-fluorouracil IC50 to test compound IC50 for human A549 cells. The format is functional.
A further assay deals with MCF7. The assay is described as follows: cells. In kind it is functional, cell-based. The note with it: Homo sapiens, MCF7, 48 h.
The test system of assay [6] is HeLa. The assay is described as follows: Potency index, ratio of 5-fluorouracil IC50 to test compound IC50 for human HeLa cells. In kind it is functional.

Description for MCF7: Cytotoxicity against human MCF7 cells assessed as inhibition of cell proliferation after 48 hrs by MTT assay

Turning to `CC(C)(O)CCC[C@@](C)(O)[C@H]1CC[C@]2(C)[C@@H]1[C@H](O)C[C@@H]1[C@@]3(C)Cc4nccnc4C(C)(C)[C@@H]3CC[C@]12C`, the IC50 in assay [1] is 13.2 µM; in the assay with HeLa [2] it was over 100 µM; in assay [3], over 100 µM; in the assay with U-87 MG, 38.1 µM; in the assay on A549 [4], 8.93 µM; in the assay with MCF7, 17.7 µM. Further, the “Ratio IC50” value with A549 [5] was determined as 2.6.

Turning to `CC1(C)CCC[C@](C)([C@H]2CC[C@]3(C)[C@@H]2[C@H](O)C[C@@H]2[C@@]4(C)Cc5c([nH]c6ccccc56)C(C)(C)[C@@H]4CC[C@]23C)O1`, the IC50 (in assay [1]; in the assay with HeLa [2]; in assay [3]; in the assay with U-87 MG; in the assay with A549 [4]; with MCF7) was over 100 µM each time.

In the case of `CC1(C)CCC[C@](C)([C@H]2CC[C@]3(C)[C@@H]2[C@H](O)C[C@@H]2[C@@]4(C)Cc5nc6ccccc6nc5C(C)(C)[C@@H]4CC[C@]23C)O1`, the IC50 (in assay [1]; in the assay with HeLa [2]; in assay [3]; in the assay with U-87 MG; in the assay with A549 [4]; in the assay on MCF7) was over 100 µM each time.

In the case of `CC1(C)CCC[C@@](C)(O)[C@H]2CC[C@]3(C)[C@@H]2[C@@H](C[C@@H]2[C@@]4(C)CCC(=O)C(C)(C)[C@@H]4CC[C@]23C)O1`, the IC50 in assay [1] is over 100 µM; with HeLa [2], over 100 µM; in assay [3], over 100 µM; with U-87 MG it was 76.4 µM; in the assay with A549 [4], 86.4 µM; with MCF7, 91.9 µM.

Take `CC1(C)CCC[C@](C)([C@H]2CC[C@]3(C)[C@@H]2[C@H](O)C[C@@H]2[C@@]4(C)Cc5nccnc5C(C)(C)[C@@H]4CC[C@]23C)O1`: the IC50 (in assay [1]; in the assay with HeLa [2]; in assay [3]; in the assay on U-87 MG; in the assay on A549 [4]; in the assay with MCF7) was over 100 µM throughout.

With `CC1(C)CCC[C@](C)([C@H]2CC[C@]3(C)[C@@H]2[C@H](O)C[C@@H]2[C@@](C)(CC(=O)O)[C@H](C(C)(C)C=O)CC[C@]23C)O1`, the IC50 (in assay [1]; in the assay on HeLa [2]; in assay [3]; in the assay on U-87 MG; in the assay with A549 [4]; in the assay with MCF7) was over 100 µM throughout.

For the compound `CC1(C)CCC[C@](C)([C@H]2CC[C@]3(C)[C@@H]2[C@H](O)C[C@@H]2[C@@]4(C)CC(C=O)C(=O)C(C)(C)[C@@H]4CC[C@]23C)O1` (some centres undefined), the IC50 in assay [1] is 30.1 µM; in the assay with HeLa [2], 31.9 µM; in assay [3], over 100 µM; in the assay on U-87 MG, 30.6 µM; with A549 [4], 18.5 µM; in the assay with MCF7, 28.3 µM.

On to `CC1(C)CCC[C@](C)([C@H]2CC[C@]3(C)[C@@H]2[C@H](O)C[C@@H]2[C@@]4(C)Cc5cn[nH]c5C(C)(C)[C@@H]4CC[C@]23C)O1`, for which the IC50 in assay [1] was 13.5 µM; in the assay with HeLa [2] it was 11.7 µM; in assay [3] it was over 100 µM; with U-87 MG it was 26.2 µM; with A549 [4], 9.62 µM; in the assay with MCF7, 18.9 µM. Moreover, the “Ratio IC50” value in the assay on HeLa [6] is 2.5.

Take `CC1(C)CCC[C@](C)([C@H]2CC[C@]3(C)[C@@H]2[C@H](O)C[C@@H]2[C@@]4(C)CC/C(=N\O)C(C)(C)[C@@H]4CC[C@]23C)O1`: the IC50 (in assay [1]; in the assay on HeLa [2]; in assay [3]; in the assay with U-87 MG; in the assay on A549 [4]; in the assay on MCF7) was over 100 µM throughout.

With `CC1(C)CCC[C@](C)([C@H]2CC[C@]3(C)[C@@H]2[C@H](O)C[C@@H]2[C@@]4(C)C=C(O)C(=O)C(C)(C)[C@@H]4CC[C@]23C)O1`, the IC50 is 50.1 µM in assay [1]; 25 µM with HeLa [2]; over 100 µM in assay [3]; 20.2 µM in the assay on U-87 MG; 40 µM in the assay with A549 [4]; 23.6 µM with MCF7.

Turning to `CC1(C)CCC[C@](C)([C@H]2CC[C@]3(C)[C@@H]2[C@H](O)C[C@@H]2[C@@]4(C)CCC(=O)C(C)(C)[C@@H]4CC[C@]23C)O1`, the IC50 in assay [1] is over 100 µM; in the assay with HeLa [2], 66.4 µM; in assay [3], over 100 µM; in the assay on U-87 MG it was 90 µM; in the assay with A549 [4], over 100 µM; with MCF7 it was 78.1 µM.

As to `CC1(C)CCC[C@](C)([C@H]2CC[C@]3(C)[C@@H]2[C@H](O)C[C@@H]2[C@@]4(C)CC[C@H](O)C(C)(C)[C@@H]4CC[C@]23C)O1` [PANAXADIOL], the IC50 in assay [1] was over 100 µM; in the assay on HeLa [2], over 100 µM; in assay [3], over 100 µM; in the assay on U-87 MG, over 100 µM; with A549 [4] it was 44.6 µM; with MCF7, 52.6 µM.
